Patent publication US20060025474A1, “Bisphenyl compounds useful as vitamin D3 receptor agonists” (priority 2004, published 2006)

These molecules were tested on ECAC2 mRNA in Caco-2 cells.
Format: cell-based
Procedure: The mRNA Expression Assay of ECAC2 in Caco-2 Cells
The dispersed cells were plated in 48-well plate at a concentration of 6.3×10^4 cells/well and incubated for 4 days at 37° C. The culture medium (Dulbecco's Modified Eagle Medium (D-MEM) without NaHCO3 with 44 mM NaHCO3, 1 mM non-essential amino acids, and 2 mM L-glutamine, 90%; fetal bovine serum, 10%) was then replaced with the same medium containing various concentrations of LG190178 (the compound disclosed in WO00/10958 and the corresponding U.S. Pat. No. 6,218,430 B1) or the compounds of the present invention, and cells were cultured for 1 day at 37° C. The culture medium containing the compounds was changed twice per day.
Total RNA Isolation from Caco-2 Cell
Total RNA was isolated from Caco-2 cell following ABI PRISM™ 6100 Nucleic Acid PrepStation protocol from Applied Biosystems.
Real Time RT-PCR Assay of ECAC2
ECAC2 mRNA expression was determined using TaqMan One-step RT-PCR Master Mix Reagents Kit and PRISM7000 systems from Applied Biosystems.
Primer information and cycle conditions are 1)ECAC2, forward 5′-[…]-3′, reverse 5′-GTCCTCTGTCTGGMGATGA-3′, Taqman probe 5′-[…]-3′, 55 cycles, annealing temperature (Ta)=60° C.; 2)GAPDH, forward 5′-GMGGTGMGGTCGGAGTC-3′, reverse 5′-GMGATGGTGATGGGATTTC-3′, Taqman probe 5′-[…]-3′, 55 cycles, Ta=60° C. ECAC2 mRNA values were normalized for the expression of GAPDH mRNA within each sample.
Comparison of ECAC2 mRNA Value
The EC50 values of ECAC2 mRNA values were analyzed by Emax models. The ECAC2 mRNA ratio was calculated as the ratio of the EC50 value of the compounds to that of LG190178. ECAC2 is a channel-like transporter mediating intestinal calcium absorption. It is described in J Biol Chem. Aug. 6, 1999; 274(32):22739-46 for example.
With `CCc1cc(C(CC)(CC)c2ccc(C(=O)N[C@@H](C)C(=O)O)s2)ccc1OCC(C)(O)C(C)(C)C` (single isomer, unassigned) [Compound D, reference compound] the “ECaC-2 mRNA induction activity in Caco-2 cells” value (from here on “ECaC-2 mRNA induction activity”) was 14%.
With `CCC(CC)(c1ccc(/C=C/C(O)(C(F)(F)F)C(F)(F)F)c(C)c1)c1ccc(OC[C@@H](O)CCCO)c(C)c1` [Example 156, (S)-5-(4-{1-Ethyl-1-[3-methyl4-((E)4,4,4-trifluoro-3-hydroxy-3-trifluoromethyl-but-1-enyl)-phenyl]-propyl}-2-methyl-phenoxy)-pentane-1,4-diol] the “ECaC-2 mRNA induction activity” value was 4760%.
In the case of `CCCc1cc(C(CC)(CC)c2ccc(OC[C@@H](O)CCC(=O)O)c(C)c2)ccc1/C=C/C(O)(CC)CC` [Example 170, (S)-5-(4-{1-Ethyl-1-[4-((E)-3-ethyl-3-hydroxy-pent-1-enyl)-3-propyl-phenyl]-propyl}-2-methyl-phenoxy)4-hydroxy-pentanoic acid], the “ECaC-2 mRNA induction activity” value is reported as 191%.
For `CCC(CC)(c1ccc(/C=C/C2(O)CCCC2)c(C)c1)c1ccc(OCCCCC(=O)O)c(C)c1` [Example 86, 5-[4-(1-ethyl-1-{4-[(E)-2-(1-hydroxy-cyclopentyl)-vinyl]-3-methyl-phenyl}-propyl)-2-methyl-phenoxy]-pentanoic acid], the “ECaC-2 mRNA induction activity” value was 289%.
In the case of `CCC(CC)(c1ccc(CCC(O)C(C)(C)C)c(C)c1)c1ccc(OCCCCCN)c(C)c1` (stereo not shown) [Example 102, 1-(4-{1-[4-(5-amino-pentyloxy)-3-methyl-phenyl]-1-ethyl-propyl}-2-methyl-phenyl)-4,4-dimethyl-pentan-3-ol], the “ECaC-2 mRNA induction activity” value is reported as 166%.
With `CCC(CC)(c1ccc(/C=C/C(O)(C(F)(F)F)C(F)(F)F)c(C)c1)c1ccc(OC[C@@H](O)CC(=O)O)c(C)c1` [Example 52, (S)4-(4-{1-ethyl-1-[3-methyl-4-((E)A4,4,4-trifluoro-3-hydroxy-3-trifluoromethyl-but-1-enyl)-phenyl]-propyl}-2-methyl-phenoxy)-3-hydroxy-butyric acid] the “ECaC-2 mRNA induction activity” value was 1227%.
In the case of `CCC(O)(/C=C/c1ccc(C(CC)(CC)c2cc(C)c(OC[C@@H]3CCC(=O)O3)c(C)c2)cc1C)CC` [Example 166, (S)-5-(4-{1-Ethyl-1-[4-((E)-3-ethyl-3-hydroxy-pent-1-enyl)-3-methyl-phenyl]-propyl}-2,6-dimethyl-phenoxymethyl)-dihydro-furan-2-one], the “ECaC-2 mRNA induction activity” value is reported as 86%.
For `CCC(CC)(c1ccc(C#CC(O)(C(F)(F)F)C(F)(F)F)c(C)c1)c1ccc(OCC(CO)CO)c(C)c1` [Example 77, 2-(4-{1-ethyl-1-[3-methyl-4-(4,4,4-trifluoro-3-hydroxy-3-trifluoromethyl-but-1-ynyl)-phenyl]-propyl}-2-methyl-phenoxymethyl)-propane-1,3-diol], the “ECaC-2 mRNA induction activity” value was 534%.
For `CCC(O)(/C=C/c1ccc(C(CC)(CC)c2ccc(OC[C@@H](O)CO)c(C)c2)cc1C)CC` [Example 64, (S)-3-(4-{1-ethyl-1-[4-((E)-3-ethyl-3-hydroxy-pent-1-enyl)-3-methyl-phenyl]-propyl}-2-methyl-phenoxy)-propane-1,2-diol], the “ECaC-2 mRNA induction activity” value was 90%.
With `CCC(CC)(c1ccc(/C=C/C2(O)CCCC2)c(C)c1)c1ccc(OCCCCCN)c(C)c1` [Example 121, 1-[(E)-2-(4-{1-[4-(5-Amino-pentyloxy)-3-methyl-phenyl]-1-ethyl-propyl}-2-methyl-phenyl)-vinyl]-cyclopentanol] the “ECaC-2 mRNA induction activity” value was 75%.
With `CCC(O)(/C=C/c1ccc(C(CC)(CC)c2ccc(OCC(CO)CO)c(C)c2)cc1C)CC` [Example 72, 2-(4-{1-Ethyl-1-[4-((E)-3-ethyl-3-hydroxy-pent-1-enyl)-3-methyl-phenyl]-propyl}-2-methyl-phenoxymethyl)-propane-1,3-diol] the “ECaC-2 mRNA induction activity” value was 542%.
In the case of `CCC(CC)(c1ccc(/C=C/C(O)(C(F)(F)F)C(F)(F)F)c(C)c1)c1ccc(OC[C@@H](O)CO)c(C)c1` [Example 69, (S)-3-(4-{1-ethyl-1-[3-methyl-4-((E)-4,4,4-trifluoro-3-hydroxy-3-trifluoromethyl-but-1-enyl)-phenyl]-propyl}-2-methyl-phenoxy)-propane-1,2-diol], the “ECaC-2 mRNA induction activity” value is reported as over 10000%.
In the case of `CCC(O)(/C=C/c1ccc(C(CC)(CC)c2ccc(OCC(=O)NCCN)c(C)c2)cc1C)CC` [Example 195, (E)-N-(2-Amino-ethyl)-2-(4-{1-ethyl-1-[4-(3-ethyl-3-hydroxy-pent-1-enyl)-3-methyl-phenyl]-propyl}-2-methyl-phenoxy)-acetamide], the “ECaC-2 mRNA induction activity” value is reported as 135%.
In the case of `CCC(CC)(c1ccc(/C=C/C(O)C(C)(C)C)c(C)c1)c1ccc(OCC(CO)CO)c(C)c1` (stereo not shown) [Example 75, 2-(4-{1-ethyl-1-[4-((E)-3-hydroxy-4,4-dimethyl-pent-1-enyl)-3-methyl-phenyl]-propyl}-2-methyl-phenoxymethyl)-propane-1,3-diol], the “ECaC-2 mRNA induction activity” value is reported as 309%.
With `CCc1cc(C(CC)(CC)c2ccc(C(=O)N[C@H](C)C(=O)O)s2)ccc1OCC(C)(O)C(C)(C)C` (single isomer, unassigned) [Compound A, reference compound] the “ECaC-2 mRNA induction activity” value was 123%.
`CCC(O)(/C=C/c1ccc(C(CC)(CC)c2ccc(OCCCCCN)c(C)c2)cc1C)CC` [Example 119, (E)-1-(4-{1-[4-(5-Amino-pentyloxy)-3-methyl-phenyl]-1-ethyl-propyl}-2-methyl-phenyl)-3-ethyl-pent-1-en-3-ol] was tested, and the “ECaC-2 mRNA induction activity” value was 12%.
In the case of `CCC(CC)(c1ccc(C#CC(O)(C(F)(F)F)C(F)(F)F)c(C)c1)c1ccc(OC[C@H](O)CCCC(=O)O)c(C)c1` [Example 60, (R)-6-(4-{1-ethyl-1-[3-methyl4-(4,4,4-trifluoro-3-hydroxy-3-trifluoromethyl-but-1-ynyl)-phenyl]-propyl}-2-methyl-phenoxy)-5-hydroxy-hexanoic acid], the “ECaC-2 mRNA induction activity” value is reported as 235%.
For `CCC(O)(/C=C/c1ccc(C(CC)(CC)c2ccc(OC[C@@H](O)CCC(=O)O)c(C)c2)cc1C)CC` [Example 1, (S)-5-(4-{1-ethyl-1-[4-((E)-3-ethyl-3-hydroxy-pent-1-enyl)-3-methyl-phenyl]-propyl}-2-methyl-phenoxy)-4-hydroxy-pentanoic acid], the “ECaC-2 mRNA induction activity” value was 36%.
For `CCC(O)(/C=C/c1ccc(C(CC)(CC)c2ccc(OCCCCC(=O)O)c(C)c2)cc1C)CC` [Example 81, 5-(4-{1-Ethyl-1-[4-((E)-3-ethyl-3-hydroxy-pent-1-enyl)-3-methyl-phenyl]-propyl}-2-methyl-phenoxy)-pentanoic acid], the “ECaC-2 mRNA induction activity” value was 102%.
In the case of `CCC(CC)(c1ccc(/C=C/C(O)(C(F)(F)F)C(F)(F)F)c(C)c1)c1ccc(OC[C@H](O)CCCC(=O)O)c(C)c1` [Example 62, (R)-6-(4-{1-Ethyl-1-[3-methyl-4-((E)-4,4,4-trifluoro-3-hydroxy-3-trifluoromethyl-but-1-enyl)-phenyl]-propyl}-2-methyl-phenoxy)-5-hydroxy-hexanoic acid], the “ECaC-2 mRNA induction activity” value is reported as 410%.
With `CCC(CC)(c1ccc(C#CC(O)(C(F)(F)F)C(F)(F)F)c(C)c1)c1ccc(OC[C@@H](O)CCCO)c(C)c1` [Example 153, (S)-5-(4-{1-Ethyl-1-[3-methyl-4-(4,4,4-trifluoro-3-hydroxy-3-trifluoromethyl-but-1-ynyl)-phenyl]-propyl}-2-methyl-phenoxy)-pentane-1,4-diol] the “ECaC-2 mRNA induction activity” value was 1662%.
In the case of `CCC(CC)(c1ccc(/C=C/C(O)(C(F)(F)F)C(F)(F)F)c(C)c1)c1ccc(OC[C@@H]2CCCC(=O)O2)c(C)c1` [Example 55, (S)-6-(4-{1-ethyl-1-[3-methyl-4-((E)-4,4,4-trifluoro-3-hydroxy-3-trifluoromethyl-but-1-enyl)-phenyl]-propyl}-2-methyl-phenoxymethyl)-tetrahydro-pyran-2-one], the “ECaC-2 mRNA induction activity” value is reported as 662%.
With `CCC(CC)(c1ccc(OCC(O)CO)c(C)c1)c1ccc(OCC(O)C(C)(C)C)c(C)c1` (stereo not shown) [LG190178, reference compound] the “ECaC-2 mRNA induction activity” value was 100%.
For `CCC(CC)(c1ccc(C#CCCCC(=O)O)c(C)c1)c1ccc(C#CC(O)(C(F)(F)F)C(F)(F)F)c(C)c1` [Example 192, 6-(4-{1-Ethyl-1-[3-methyl-4-(4,4,4-trifluoro-3-hydroxy-3-trifluoromethyl-but-1-ynyl)-phenyl]-propyl}-2-methyl-phenyl)-hex-5-ynoic acid], the “ECaC-2 mRNA induction activity” value was 292%.
In the case of `CCC(CC)(c1ccc(C#CC(O)C(C)(C)C)c(C)c1)c1ccc(OC[C@@H](O)CO)c(C)c1` (stereo partly drawn) [Example 66, 3-(4-{1-ethyl-1-[4-(3-hydroxy-4,4-dimethyl-pent-1-ynyl)-3-methyl-phenyl]-propyl}-2-methyl-phenoxy)-propane-1,2(S)-diol], the “ECaC-2 mRNA induction activity” value is reported as 126%.
